According to patent US8178530B2, “Imidazolopyrazine compounds useful for the treatment of degenerative and inflammatory diseases” (Janssen Pharmaceutica NV, priority 2006, dated 2012):

How the values were obtained:
MAPKAPK5 = target: T1, MAPKAPK5 (Homo sapiens, UniProt Q8IW41); experiment: MAPKAP-K5 assay (FlashPlate, 33P-ATP); assay type: biochemical; conditions: 0.6 μM ATP, 30 minutes at room temperature
T1 construct: 1 mU MAPKAP-K5
T1 sequence (Q8IW41 1-473): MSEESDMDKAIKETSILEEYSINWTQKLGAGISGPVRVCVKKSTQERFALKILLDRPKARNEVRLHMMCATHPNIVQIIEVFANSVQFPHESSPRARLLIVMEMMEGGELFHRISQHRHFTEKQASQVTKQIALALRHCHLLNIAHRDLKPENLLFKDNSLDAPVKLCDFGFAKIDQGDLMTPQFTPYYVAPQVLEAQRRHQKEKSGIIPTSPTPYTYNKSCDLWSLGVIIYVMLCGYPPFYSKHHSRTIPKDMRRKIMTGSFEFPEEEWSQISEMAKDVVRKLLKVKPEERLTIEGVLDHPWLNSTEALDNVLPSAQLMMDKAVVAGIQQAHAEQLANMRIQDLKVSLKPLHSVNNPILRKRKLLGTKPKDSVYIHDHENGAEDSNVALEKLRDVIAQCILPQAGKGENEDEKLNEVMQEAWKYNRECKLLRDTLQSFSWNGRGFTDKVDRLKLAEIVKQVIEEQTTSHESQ
Description: 3 μM MAPKAP-K5 peptide substrate

MMP1 expression by SFs = experiment: 'MMP assay': MMP1 expression by 'complex trigger' activated synovial fibroblasts (MMP1 ELISA); assay type: cell-based, human; conditions: Homo sapiens, Fibroblast, RASFs, 48 hrs

Row | Compound | IC50 (MAPKAPK5) | EC50 (MMP1 expression by SFs)
1 | CCN(CC)CCNC(=O)c1ccc(Nc2ncc(-c3cn[nH]c3)n3ccnc23)c(F)c1 [Compound 83] | 101 to 500 nM | > 1000 nM
2 | NC(=O)c1c(F)cc(-c2cnc(Nc3ccc(N4CCOCC4)cc3)c3nccn23)cc1F [Compound 165] | > 1000 nM | > 1000 nM
3 | CC(C)N1CCN(c2ccc(Nc3ncc(-c4ccc5c(c4)CNC5=O)n4ccnc34)cc2)CC1 [Compound 205, 5-{8-[4-(4-Isopropyl-piperazin-1-yl)-phenylamino]-imidazo[1,2-a]pyrazin-5-yl}-2,3-dihydro-isoindol-1-one] | 1 to 100 nM | > 1000 nM
4 | CN1CCC(Oc2ccc(Nc3ncc(-c4ccc(C(N)=O)c(F)c4)n4ccnc34)cc2)CC1 [Compound 149] | > 1000 nM | > 1000 nM
5 | CN1CCN(c2ccc(Nc3ncc(-c4ccc(C(N)=O)o4)n4ccnc34)cc2)CC1 [Compound 139, 5-{8-[4-(4-Methyl-piperazin-1-yl)-phenylamino]-imidazo[1,2-a]pyrazin-5-yl}-furan-2-carboxylic acid amide] | > 1000 nM | > 1000 nM
6 | CN1CCN(c2ccc(Nc3ncc(-c4ccc(C(N)=O)cc4)n4ccnc34)cc2F)CC1 [Compound 171, 4-{8-[3-Fluoro-4-(4-methyl-piperazin-1-yl)-phenylamino]-imidazo[1,2-a]pyrazin-5-yl}-benzamide] | > 1000 nM | 101 to 500 nM
7 | Cc1cc(C(N)=O)ccc1-c1cnc(Nc2ccc(N3CCN(C)CC3)cc2)c2nccn12 [Compound 120] | > 1000 nM | > 1000 nM
8 | CN1CCN(c2ccc(Nc3ncc(-c4ccc(C(N)=O)c(Cl)c4)n4ccnc34)cc2)CC1 [Compound 124] | > 1000 nM | > 1000 nM
9 | CN1CCN(c2ccc(Nc3ncc(-c4cc(C(N)=O)cs4)n4ccnc34)cc2)CC1 [Compound 145, 5-{8-[4-(4-Methyl-piperazin-1-yl)-phenylamino]-imidazo[1,2-a]pyrazin-5-yl}-thiophene-3-carboxylic acid amide] | > 1000 nM | 501 to 1000 nM
10 | NC(=O)c1ccc(-c2cnc(Nc3ccc(OCCN4CCOCC4)cc3)c3nccn23)cc1F [Compound 146] | > 1000 nM | 501 to 1000 nM
11 | CC(C)N1CCN(c2ccc(Nc3ncc(-c4ccc(C(N)=O)cc4)n4ccnc34)cc2)CC1 [Compound 142] | > 1000 nM | 501 to 1000 nM
12 | CN1CCN(c2ccc(Nc3ncc(-c4ccc(C(N)=O)cc4)n4ccnc34)cc2Cl)CC1 [Compound 136, 4-{8-[3-Chloro-4-(4-methyl-piperazin-1-yl)-phenylamino]-imidazo[1,2-a]pyrazin-5-yl}-benzamide] | 101 to 500 nM | > 1000 nM
13 | CN1CCC(COc2ccc(Nc3ncc(-c4ccc(C(N)=O)c(F)c4)n4ccnc34)cc2)CC1 [Compound 159, 2-Fluoro-4-{8-[4-(1-methyl-piperidin-4-ylmethoxy)-phenylamino]-imidazo[1,2-a]pyrazin-5-yl}-benzamide] | > 1000 nM | 101 to 500 nM
14 | CN1CCN(c2ccc(Nc3ncc(-c4ccc(C(N)=O)s4)n4ccnc34)cc2)CC1 [Compound 127, (4-(4-Methylpiperazin-1-yl)phenyl)-[5-(2-carboxamido-5-thienyl)imidazo[1,2-a]pyrazin-8-yl]amine] | 101 to 500 nM | 101 to 500 nM
15 | CC(C)N1CCN(c2ccc(Nc3ncc(-c4ccc5c(c4)CNC5=O)n4ccnc34)cn2)CC1 [Compound 210, 5-{8-[6-(4-Isopropyl-piperazin-1-yl)-pyridin-3-ylamino]-imidazo[1,2-a]pyrazin-5-yl}-2,3-dihydro-isoindol-1-one] | 1 to 100 nM | 501 to 1000 nM
16 | Cc1oc(-c2cnc(Nc3ccc(N4CCOCC4)cc3)c3nccn23)cc1C(N)=O [Compound 188] | > 1000 nM | 501 to 1000 nM
17 | CC(C)N1CCN(c2ccc(Nc3ncc(-c4cc(F)c(C(N)=O)c(F)c4)n4ccnc34)cc2)CC1 [Compound 193] | 501 to 1000 nM | 501 to 1000 nM
18 | C[C@@H]1CN(c2ccc(Nc3ncc(-c4csc(C(N)=O)c4)n4ccnc34)cc2)[C@@H](C)CN1C [Compound 186] | 101 to 500 nM | 501 to 1000 nM
19 | NC(=O)c1ccc(-c2cnc(Nc3ccc(N4CCN(CCO)CC4)cc3)c3nccn23)cc1 [Compound 156] | 501 to 1000 nM | 101 to 500 nM

Second part, led by results:

Row | IC50 (MAPKAPK5) | Compound | EC50 (MMP1 expression by SFs)
20 | 501 to 1000 nM | c1cn2c(-c3cn[nH]c3)cnc(Nc3ccc(OCCN4CCOCC4)cc3)c2n1 [Compound 150, [4-(2-Morpholin-4-yl-ethoxy)-phenyl]-[5-(1H-pyrazol-4-yl)-imidazo[1,2-a]pyrazin-8-yl]-amine] | > 1000 nM
21 | 101 to 500 nM | C[C@@H]1CN(C)[C@@H](C)CN1c1ccc(Nc2ncc(-c3ccc(C(N)=O)cc3)n3ccnc23)cc1 [Compound 137] | 101 to 500 nM
22 | > 1000 nM | CN(C)Cc1cc(Nc2ncc(-c3cn[nH]c3)n3ccnc23)ccc1N1CCOCC1 [Compound 218, (3-Dimethylaminomethyl-4-morpholin-4-yl-phenyl)-[5-(1H-pyrazol-4-yl)-imidazo[1,2-a]pyrazin-8-yl]-amine] | > 1000 nM
23 | > 1000 nM | CN1CCN(c2ccc(Nc3ncc(-c4ccc(C(N)=O)nc4)n4ccnc34)cc2)CC1 [Compound 129, 5-{8-[4-(4-Methyl-piperazin-1-yl)-phenylamino]-imidazo[1,2-a]pyrazin-5-yl}-pyridine-2-carboxylic acid amide] | > 1000 nM
24 | 101 to 500 nM | CN1CCC(NC(=O)c2ccc(Nc3ncc(-c4cn[nH]c4)n4ccnc34)cc2)C1 (stereo not shown) [Compound 64] | > 1000 nM
25 | > 1000 nM | c1cn(-c2ccc(Nc3ncc(-c4cn[nH]c4)n4ccnc34)cc2)cn1 [Compound 168, (4-Imidazol-1-yl-phenyl)-[5-(1H-pyrazol-4-yl)-imidazo[1,2-a]pyrazin-8-yl]-amine] | > 1000 nM
26 | 101 to 500 nM | CN1CCN(c2ccc(Nc3ncc(-c4csc(C(N)=O)c4)n4ccnc34)cc2)CC1 [Compound 118] | > 1000 nM
27 | > 1000 nM | Cn1nnc(-c2ccc(Nc3ncc(-c4cn[nH]c4)n4ccnc34)cc2)n1 [Compound 169, [4-(2-Methyl-2H-tetrazol-5-yl)-phenyl]-[5-(1H-pyrazol-4-yl)-imidazo[1,2-a]pyrazin-8-yl]-amine] | 101 to 500 nM
28 | > 1000 nM | CN1CCN(c2ccc(Nc3ncc(-c4ccc(C(N)=O)cc4)n4ccnc34)cc2)CC1 [Compound 143] | 501 to 1000 nM
29 | > 1000 nM | CN1CCN(c2ccc(Nc3ncc(-c4cscn4)n4ccnc34)cc2)CC1 [Compound 138] | > 1000 nM
30 | 101 to 500 nM | O=C(NCCN1CCOCC1)c1ccc(Nc2ncc(-c3cn[nH]c3)n3ccnc23)cc1 [Compound 53] | > 1000 nM
31 | > 1000 nM | CN1CCN(c2ccc(Nc3ncc(-c4ccnc(F)c4)n4ccnc34)cc2)CC1 [Compound 125, [5-(2-Fluoro-pyridin-4-yl)-imidazo[1,2-a]pyrazin-8-yl]-[4-(4-methyl-piperazin-1-yl)-phenyl]-amine] | > 1000 nM
32 | > 1000 nM | CN(C)c1ccc(CNC(=O)c2ccc(Nc3ncc(-c4cn[nH]c4)n4ccnc34)cc2)cc1 [Compound 89] | 501 to 1000 nM
33 | > 1000 nM | c1cn2c(-c3c[nH]cn3)cnc(Nc3ccc(N4CCOCC4)cc3)c2n1 [Compound 163] | > 1000 nM
34 | > 1000 nM | O=C(Nc1ccccc1)c1ccc(Nc2ncc(-c3cn[nH]c3)n3ccnc23)cc1 [Compound 41] | > 1000 nM
35 | 501 to 1000 nM | Cc1[nH]ncc1-c1cnc(Nc2ccc(N3CCOCC3)cc2)c2nccn12 [Compound 176] | > 1000 nM
36 | 501 to 1000 nM | O=C(NCc1cccnc1)c1ccc(Nc2ncc(-c3cn[nH]c3)n3ccnc23)cc1 [Compound 35] | > 1000 nM
37 | > 1000 nM | C[C@@H]1CN(c2ccc(Nc3ncc(-c4ccc(C(N)=O)cc4)n4ccnc34)cc2)C[C@H](C)N1C [Compound 155] | 101 to 500 nM
38 | 501 to 1000 nM | CCN(CC)CCNC(=O)c1ccc(Nc2ncc(-c3cn[nH]c3)n3ccnc23)cc1F [Compound 82] | > 1000 nM
39 | 501 to 1000 nM | O=C(NCc1ccc(O)cc1)c1ccc(Nc2ncc(-c3cn[nH]c3)n3ccnc23)cc1 [Compound 90, N-(4-Hydroxybenzyl)-4-[5-(1H-pyrazol-4-yl)imidazo[1,2-a]pyrazin-8-ylamino]benzamide] | 101 to 500 nM
40 | 101 to 500 nM | Cc1[nH]ncc1-c1cnc(Nc2ccc(N3CCN(C)CC3)cc2)c2nccn12 [Compound 119, (4-(4-Methylpiperazin-1-yl)phenyl)-[5-(5-methyl-1H-pyrazol-4-yl)imidazo[1,2-a]pyrazin-8-yl]amine] | > 1000 nM
41 | > 1000 nM | NC(=O)c1ccc(-c2cnc(Nc3ccc(-c4cccnc4)cc3)c3nccn23)cc1 [Compound 153] | 101 to 500 nM
42 | > 1000 nM | NC(=O)c1ccc(-c2cnc(Nc3ccc(-n4ccnc4)cc3)c3nccn23)cc1 [Compound 167] | > 1000 nM
43 | 101 to 500 nM | c1cn2c(-c3cn[nH]c3C3CC3)cnc(Nc3ccc(N4CCOCC4)cc3)c2n1 [Compound 160, [5-(5-Cyclopropyl-1H-pyrazol-4-yl)-imidazo[1,2-a]pyrazin-8-yl]-(4-morpholin-4-yl-phenyl)-amine] | > 1000 nM
44 | 101 to 500 nM | O=C(NC1CCNC1)c1ccc(Nc2ncc(-c3cn[nH]c3)n3ccnc23)cc1 (stereo not shown) [Compound 55] | > 1000 nM
